The source of these data is doi:10.1101/404459v1 (biorxiv, 2018).

The target in one data set is T1, PbCLK3 (Plasmodium berghei, UniProt A0A509AKE9).
T1 sequence (A0A509AKE9 1-706): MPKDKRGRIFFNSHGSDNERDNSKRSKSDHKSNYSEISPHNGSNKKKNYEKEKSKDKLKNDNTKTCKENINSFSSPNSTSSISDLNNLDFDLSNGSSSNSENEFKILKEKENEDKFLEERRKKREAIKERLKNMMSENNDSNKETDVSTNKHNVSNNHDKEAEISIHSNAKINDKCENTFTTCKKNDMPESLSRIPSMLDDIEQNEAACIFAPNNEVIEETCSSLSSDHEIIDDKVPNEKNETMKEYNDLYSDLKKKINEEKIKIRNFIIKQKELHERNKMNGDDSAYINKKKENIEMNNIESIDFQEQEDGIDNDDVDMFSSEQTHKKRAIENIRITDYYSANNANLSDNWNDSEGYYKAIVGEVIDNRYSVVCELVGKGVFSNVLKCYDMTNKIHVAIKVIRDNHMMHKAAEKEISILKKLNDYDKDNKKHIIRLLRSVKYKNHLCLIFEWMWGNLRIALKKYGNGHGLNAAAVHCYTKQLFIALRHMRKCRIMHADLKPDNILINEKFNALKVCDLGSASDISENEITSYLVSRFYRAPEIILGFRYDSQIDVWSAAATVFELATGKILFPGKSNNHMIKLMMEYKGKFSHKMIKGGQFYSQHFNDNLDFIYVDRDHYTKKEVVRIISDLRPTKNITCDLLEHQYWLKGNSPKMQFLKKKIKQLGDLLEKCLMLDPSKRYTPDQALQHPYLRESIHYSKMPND
Briefly: TR-FRET kinase assay. Type of data set: biochemical. The following applies: recombinant kinase. In general terms: TR-FRET usually uses a lanthanide donor and a delayed reading to cut background.

A further data set concerns the target PvCLK3. In words: TR-FRET kinase assay. Type of data set: biochemical, Plasmodium vivax. The following applies: recombinant kinase.
Substrate in the data set “purified protein”: Nc1ncnc2c1ncn2[C@@H]1O[C@H](COP(=O)(O)OP(=O)(O)OP(=O)(O)O)[C@@H](O)[C@H]1O
In words: purified protein. The following applies: co-substrate ULight-CREBtide; pH […]; […] MgCl2; room temperature.

One may read the pIC50 as the negative decadic logarithm of the IC50, by convention in mol/L. Consider `CCN(CC)Cc1ccc(OC)c(-c2cc3c(-c4ccc(C(=O)O)c(C(C)C)c4)ccnc3[nH]2)c1` [TCMDC-135051], for which the pIC50 on PbCLK3 is 7.47 ± 0.12; on PvCLK3 it was 7.86 ± 0.10.

B1: PfCLK1 (Plasmodium falciparum 3D7) (protein)
chain: DDEIVHFSWKKGMLLNNAFLVIRKMGDGTFGRVLLCQHIDNKKYYAVKVVRNIKKYTRSAKIEADILKKIQNDDINNNNIVKYHGKFMYYDHMCLIFEPLGPSLYEIITRNNYNGFHIEDIKLYCIEILKALNYLRKMSLTHTDLKPENILLDDPYFEKSLITVRRVTDGKKIQIYRTKSTGIKLIDFGCATFKSDYHGSIINTRQYRAPEVILNLGWDVSSDMWSFGCVLAELYTGSLLFRTHEHMEHLAMMESIIQPIPKNMLYEATKTNGSKYVNKDELKLAWPENASSINSIKHVKKCLPLYKIIKHELFCDFLYSILQIDPTLRPSPAELLKHKFLE
As usually defined, the Km is the concentration of substrate that gives half-maximal velocity. Turning to B1, the Km in “purified protein” is reported as 30 µM.
